Data published in patent US12152049B2, “STING agonistic compound” (ONO PHARMACEUTICAL CO., LTD., priority 2018, dated 2024).
Structures can show the parent of a compound that is named as a salt.

Tests used:
IDO1 = molecular target: T1, IDO1 (Homo sapiens, UniProt P14902); test: Evaluation of IDO1 inhibitory activity (IDO1 Fluorogenic Inhibitor Screening Assay Kit); assay type: biochemical; conditions: compound solutions of 0.6, 2, 6, 20, 60 and 200 μmol/L added
T1 construct: His-tag; purchased BPS Bioscience
T1 sequence (P14902 whole entry): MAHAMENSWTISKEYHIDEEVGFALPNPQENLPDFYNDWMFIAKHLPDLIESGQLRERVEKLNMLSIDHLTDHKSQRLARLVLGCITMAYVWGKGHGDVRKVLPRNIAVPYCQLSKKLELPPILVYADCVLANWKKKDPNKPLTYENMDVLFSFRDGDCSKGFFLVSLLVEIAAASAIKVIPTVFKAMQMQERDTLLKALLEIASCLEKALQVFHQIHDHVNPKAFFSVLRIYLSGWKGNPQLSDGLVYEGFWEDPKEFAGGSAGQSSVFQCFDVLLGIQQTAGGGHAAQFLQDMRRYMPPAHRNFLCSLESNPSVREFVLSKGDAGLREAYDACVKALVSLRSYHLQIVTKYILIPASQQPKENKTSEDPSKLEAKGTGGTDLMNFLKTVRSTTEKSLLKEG
Description: The evaluation of IDO1 inhibitory activity was carried out using the IDO1 Fluorogenic Inhibitor Screening Assay Kit (BPS Bioscience). Specifically, IDO1 Fluorogenic Reaction Solution was dissolved, of which 180 μL were added to each well. Then, 10 μL of compounds at the respective concentrations of 0.6, 2, 6, 20, 60 and 200 μmol/L were added thereto. Further, after adding 10 μL of IDO1 His-Tag solution thereto, of which the mixtures were incubated at room temperature for 1 hour, and then 20 μL of Fluorescence Solution was added thereto, of which the mixtures were incubated at 37° C. for 4 hours. After standing them at room temperature for 10 minutes, the fluorescence was measured using a microplate reader (excitation: 400 nm, emission: 510 nm).

THP1-Dual cells = test: Effects on THP1-Dual cells: activation of the IRF pathway (Quanti-luc luminescence); assay type: cell-based; conditions: Homo sapiens, incubation about 24 hours
Description: THP1-Dual cells (Invivogen) were suspended in RPMI medium to prepare 2×10^6 cells/mL of cell suspension. 50 μL of the cell suspensions were dispensed into a 96-well plate, to which 50 μL of 6 to 20,000 nmol/L compound solutions were added. After adding the compound, the mixture was incubated at 37° C. for about 24 hours. After incubation, 10 μL of cell suspensions were collected from the respective wells, which were mixed with 50 μL of Quanti-luc (Invivogen). Then, the activation of the IRF (Interferon regulatory factor) pathway was measured by detecting luminescence using a microplate reader (Molecular Devices).

[1] = system: mouse colon cancer cell line MC38; test: Anti-tumor effect in tumor model bearing subcutaneous mouse colon cancer cell line MC38; assay type: in vivo, mice (C57/BL6); conditions: 3 mg/kg, administered 7 days after MC38 transplantation, measured until Day 26
Description: Colon cancer cell line MC38 derived from C57/BL6 mice were subcutaneously transplanted to right flank of syngeneic mice (C57/BL6, female, 6 weeks old (Charles River Japan)) (herein, the day of transplantation was Day 0) to prepare tumor mice bearing subcutaneous MC38. Seven days after transplantation, tumor mice bearing subcutaneous MC38 were grouped based on tumor volume, and used as the Vehicle group (n=8) and the compound administration group (3 mg/kg, n=6) shown in Example 1. The changes in tumor volume were continuously measured until the 26 days after transplantation (Day 26). The tumor volume was calculated by the following formula: [Tumor volume (mm^3)]=[major axis (mm)]×[minor axis (mm)]^2×0.5
Colon cancer cell line MC38 derived from C57/BL6 mice were subcutaneously transplanted to right flank of syngeneic mice (C57/BL6, female, 6 weeks old (Charles River Japan)) (herein, the day of transplantation was Day 0) to prepare tumor mice bearing subcutaneous MC38. They were grouped based on tumor volume 7 or 8 days after transplantation, to which the Vehicle (n=8 or 6) and the respective compounds of Examples 10 and 10(1) to 10(6) (1, 1, 1, 10, 3, 1 and 1 mg/kg, n=8 or 6) were administered. The changes in tumor volume were measured serially until the 28 or 30 days after transplantation (Day 28 or 30). The tumor volume was calculated from the formula shown in Example 16.

[2] = system: BTK, KDR, each subtype of PKCα to ι, each CDK of CDK2 to 9, FAK, TIE2, RAF1 and BRAF; test: Evaluation of inhibitory activity against various kinases (mobility shift, LabChip); assay type: biochemical; conditions: 4 μmol/L test substance solution (4 times the final concentration)
Description: 4 μmol/L of test substance solution (the compound of the present invention shown in Example 1) (at 4 times the final concentration) was prepared by dissolving it to the assay buffer (20 mmol/L HEPES, 0.01% Triton X-100, 1 mmol/L DTT, pH 7.5). 4 μmol/L of substrate/ATP/metal solution (at 4 times the final concentration) was prepared by dissolving them to the kit buffer (20 mmol/L HEPES, 0.01% Triton X-100, 5 mmol/L DTT, pH 7.5).
Various kinase solutions at twice the final concentration were prepared by dissolving them to the assay buffer. 5 μL of the test substance solution, 5 μL of the substrate/ATP/metal solution and 10 μL of the kinase solution were mixed in wells of a polypropylene 384-well plate, of which the mixture was reacted at room temperature for 1 to 5 hours. The reaction was stopped by adding 70 μL of the termination buffer (QuickScout Screening Assist MSA; Cama Biosciences). The substrate peptide and phosphorylated peptide in the reaction solution were separated and quantified by LabChip system (Perkin Elmer). The kinase reaction was evaluated by the product ratio (P/(P+S)) calculated from the peak height (S) of the substrate peptide and the peak height (P) of the phosphorylated peptide. The various kinases used for evaluation are as follows:
BTK, KDR, each subtype of PKCα to ι, each CDK of CDK2 to 9, FAK, TIE2, RAF1 and BRAF.

THP1-Dual-STING KO cells = test: Activity on THP1-Dual-STING KO cells: IRF pathway (Quanti-luc luminescence); assay type: cell-based; conditions: STING gene homozygous deficient THP1-Dual cells, 6 to 20,000 nM compound solutions, about 24 hours
Description: STING gene homozygous deficient THP1-Dual cells (THP1-Dual-STING KO cells (Invivogen) were suspended in RPMI medium to prepare 2×10^6 cells/mL cell suspension. 50 μL of cell suspensions were dispensed into a 96-well plate, to which 50 μL of 6 to 20,000 nM compound solutions were further added, followed by incubation at 37° C. for about 24 hours. 10 μL of the cell suspensions were collected from the respective wells, which were mixed with 50 μL of Quanti-luc (Invivogen), and then the activity of the IRF pathway was measured by detecting luminescence using a microplate reader.

Row | EC50 (THP1-Dual cells) [nM] | Compound | also measured
1 | 180 | COC(=O)c1cc(-c2ncc(-c3cn[nH]c3)c3onc(N)c23)c(F)cc1N [Example 1, methyl 2-amino-5-(3-amino-7-(1H-pyrazol-4-yl)isoxazolo[4,5-c]pyridin-4-yl)-4-fluorobenzoate] | IDO1 inhibitory activity (IDO1): did not show any IDO1 inhibitory activity; tumor growth (tumor volume) [1]: almost completely suppressed the tumor growth; inhibitory activity against the evaluated kinases [2]: did not showed any significantly inhibit activities; IRF activating effect (THP1-Dual-STING KO cells): no IRF activating effect
2 | 1930 | COc1cc(-c2ncc(-c3cn[nH]c3)c3onc(N)c23)c(F)cc1N [Example 2, 4-(4-amino-2-fluoro-5-methoxyphenyl)-7-(1H-pyrazol-4-yl)isoxazolo[4,5-c]pyridin-3-amine hydrochloride] | –
3 | 40 | CC(=O)c1cc(-c2ncc(-c3cn[nH]c3)c3onc(N)c23)c(F)cc1N [Example 3, 1-(2-amino-5-(3-amino-7-(1H-pyrazol-4-yl)isoxazolo[4,5-c]pyridin-4-yl)-4-fluorophenyl)ethan-1-one] | –
4 | 950 | CS(=O)(=O)c1cc(-c2ncc(-c3cn[nH]c3)c3onc(N)c23)c(F)cc1N [Example 4(3), 4-(4-amino-2-fluoro-5-(methylsulfonyl)phenyl)-7-(1H-pyrazol-4-yl)isoxazolo[4,5-c]pyridin-3-amine hydrochloride] | –
5 | 80 | NC(=O)c1cc(-c2ncc(-c3cn[nH]c3)c3onc(N)c23)c(F)cc1N [Example 4(5), 2-amino-5-(3-amino-7-(1H-pyrazol-4-yl)isoxazolo[4,5-c]pyridin-4-yl)-4-fluorobenzamide hydrochloride] | –
6 | 40 | CCOC(=O)c1cc(-c2ncc(-c3cn[nH]c3)c3onc(N)c23)c(F)cc1N [Example 4(6), ethyl 2-amino-5-(3-amino-7-(1H-pyrazol-4-yl)isoxazolo[4,5-c]pyridin-4-yl)-4-fluorobenzoate hydrochloride] | –
7 | 20 | CCC(=O)c1cc(-c2ncc(-c3cn[nH]c3)c3onc(N)c23)c(F)cc1N [Example 4(7), 1-(2-amino-5-(3-amino-7-(1H-pyrazol-4-yl)isoxazolo[4,5-c]pyridin-4-yl)-4-fluorophenyl)propan-1-one hydrochloride] | –
8 | 20 | CCNC(=O)c1cc(-c2ncc(-c3cn[nH]c3)c3onc(N)c23)c(F)cc1N [Example 4(8), 2-amino-5-(3-amino-7-(1H-pyrazol-4-yl)isoxazolo[4,5-c]pyridin-4-yl)-N-ethyl-4-fluorobenzamide hydrochloride] | –
9 | 130 | CC(=O)c1cc(-c2ncc(-c3cn[nH]c3)c3onc(N)c23)ccc1N [Example 4(9), 1-(2-amino-5-(3-amino-7-(1H-pyrazol-4-yl)isoxazolo[4,5-c]pyridin-4-yl)phenyl)ethan-1-one hydrochloride] | –
10 | 100 | CNC(=O)c1cc(-c2ncc(-c3cn[nH]c3)c3onc(N)c23)ccc1N [Example 4(15), 2-amino-5-(3-amino-7-(1H-pyrazol-4-yl)isoxazolo[4,5-c]pyridin-4-yl)-N-methylbenzamide hydrochloride] | –
11 | 1000 | CSc1cc(-c2ncc(-c3cn[nH]c3)c3onc(N)c23)c(Cl)cc1N [Example 4(16), 4-(4-amino-2-chloro-5-(methylthio)phenyl)-7-(1H-pyrazol-4-yl)isoxazolo[4,5-c]pyridin-3-amine hydrochloride] | –
12 | 90 | CSc1cc(-c2ncc(-c3cn[nH]c3)c3onc(N)c23)c(F)cc1N [Example 4, 4-(4-amino-2-fluoro-5-(methylthio)phenyl)-7-(1H-pyrazol-4-yl)isoxazolo[4,5-c]pyridin-3-amine hydrochloride] | –
